This is an account of results in patent publication US6875760B2 (Novo Nordisk A/S, priority 1999, dated 2005).

Structures are written as SMILES.

For one assay, the target named is T1, cloned human glucagon receptor (Homo sapiens, UniProt P47871).
T1 construct: expressed in transfected cells; plasma membrane preparation
T1 sequence (P47871 26-477): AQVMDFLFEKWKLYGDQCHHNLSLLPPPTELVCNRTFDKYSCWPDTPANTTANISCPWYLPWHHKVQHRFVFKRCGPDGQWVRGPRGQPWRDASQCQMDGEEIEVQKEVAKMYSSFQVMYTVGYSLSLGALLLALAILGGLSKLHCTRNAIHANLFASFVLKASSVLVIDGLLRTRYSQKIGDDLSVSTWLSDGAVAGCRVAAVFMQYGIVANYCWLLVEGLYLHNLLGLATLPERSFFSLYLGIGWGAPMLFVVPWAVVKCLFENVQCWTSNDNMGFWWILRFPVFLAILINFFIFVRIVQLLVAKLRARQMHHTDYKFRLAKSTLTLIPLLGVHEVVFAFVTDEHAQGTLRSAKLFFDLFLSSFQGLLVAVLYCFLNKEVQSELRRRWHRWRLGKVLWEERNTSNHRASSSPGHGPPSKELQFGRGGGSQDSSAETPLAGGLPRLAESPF
The assay is described as follows: Glucagon Binding Assay (II). The following applies: plasma membranes of BHK cells expressing the receptor; read-out: Glu Bd Assay (II) IC50. The procedure: Binding of compounds to the glucagon receptor was determined in a competition binding assay using the cloned human glucagon receptor.
The receptor inserted in the pLJ6′ expression vector using EcoRI/SSt1 restriction sites (Lok et al.) was expressed in a baby hamster kidney cell line (A3 BHK 570-25).
The homogenate was resuspended and centrifuged again. The final precipitate containing the plasma membranes was suspended in buffer and stored at −80° C. until use.
Binding assays were carried out in duplicate in polypropylene tubes or microtiter plates. The buffer used in this assay was 50 mM HEPES pH 7.4 containing 5 mM EGTA, 5 mM MgCl2 and 0.005% Tween 20. Sample (glucagon (Bachem CA) or test compounds) was added to each tube or well. Tracer (˜25.000 cpm) was diluted in buffer and was added to each tube or well. 0.5 mg freshly thawed plasma membrane protein diluted in buffer was then added in aliquots to each tube or well. Tubes or plates were incubated at 37° C. for 1 hour. Non-specific binding was determined with 10^−7 M of glucagon. Bound tracer and unbound tracer were then separated by vacuum filtration. The tubes or wells were washed twice with 0.01% Triton X-100 buffer. Scintillation fluid was added to the plates and radioactivity was quantified using a scintillation counter.
As for `C[C@@H](C1CCCCC1)N(Cc1ccc(C(=O)NCCC(=O)O)cc1)C(=O)Nc1ccc2ccccc2c1` [Example 110, 3-{4-[1-((1S)-1-Cyclohexylethyl)-3-naphthalene-2-ylureidomethyl]benzoylamino)propionic acid], the IC50 worked out at 0.694 µM.

As to `CC(C)(C)C1CCC(N(Cc2ccc(C(=O)NCCc3nnn[nH]3)cc2)C(=O)Nc2ccc(OC(F)(F)F)cc2)CC1` (stereo not drawn) [Example 156, 4-[1-(4-tert-Butylcyclohexyl)-3-(4-trifluoromethoxyphenyl)ureidomethyl]-N-[2-(1H-tetrazol-5-yl)ethyl]benzamide], the half-maximal inhibitory concentration (IC50) was 0.146 µM.

Consider `CCCCOC(=O)c1ccc(NC(=O)N(Cc2ccc(C(=O)NCCC(=O)O)cc2)CC(C)(C)C)cc1`, for which the IC50 worked out at 0.23 µM.

Consider `CC(C)(C)C1CCC(N(Cc2ccc(C(=O)NCCc3nnn[nH]3)cc2)C(=O)Nc2cc(Cl)cc(Cl)c2)CC1` (stereo not drawn) [Example 157, 4-[1-(4-tert-Butylcyclohexyl)-3-(3,5-dichlorophenyl)ureidomethyl]-N-[2-(1H-tetrazol-5-yl)ethyl]benzamide], for which the IC50 stood at 0.25 µM.

Regarding `CC(C)(C)C1CCC(N(Cc2ccc(C(=O)NCCC(=O)O)s2)C(=O)Nc2ccc(OC(F)(F)F)cc2)CC1` (stereo not drawn) [Example 113, 3-{5-[1-(4-tert-Butylcyclohexyl)-3-(4-trifluoromethoxyphenyl)ureidomethyl]thiophene-2-carbonylamino)propionic acid], the IC50 was 0.254 µM.

`C[C@@H](C1CCCCC1)N(Cc1ccc(C(=O)NCCC(=O)O)cc1)C(=O)Nc1ccc(OC(F)(F)F)cc1` [Example 139, 3-{4-[1-((1S)-1-Cyclohexylethyl)-3-(4-trifluoromethoxyphenyl)ureidomethyl]benzoylamino)propionic acid]: the half-maximal inhibitory concentration (IC50) amounted to 0.379 µM.

As for `C[C@@H](NC(=O)N(Cc1ccc(C(=O)NCCC(=O)O)cc1)c1ccc(C2CCCCC2)cc1)c1ccccc1` [Example 608, 3-{4-[1-(4-Cyclohexylphenyl)-3-((1R)-1-phenylethyl)ureidomethyl]benzoylamino}propionic acid], the IC50 was found to be 0.677 µM.

Regarding `O=C(O)CCNC(=O)c1ccc(CN(Cc2cc(Cl)cc(Cl)c2)c2ccc(C3CCCCC3)cc2)cc1` [Example 582, 3-(4-{[(4-Cyclohexylphenyl)-(3,5-dichlorobenzyl)amino}methyl]benzoylamino)propionic acid], the IC50 is 0.108 µM.

Consider `CC1CC(C)CC(N(Cc2ccc(C(=O)NCCC(=O)O)cc2)C(=O)Nc2cc(Cl)cc(Cl)c2)C1` (stereo not drawn) [Example 177, 3-{4-[3-(3,5-Dichlorophenyl)-1-(3,5-dimethylcyclohexyl)ureidomethyl]benzoylamino)propionic acid], for which the IC50 was 0.454 µM.

As for `O=C(O)CCNC(=O)c1ccc(CN(C(=O)Nc2ccc(OC(F)(F)F)cc2)C2CCC(C3CCCCC3)CC2)cc1` (stereo not drawn) [Example 577, 3-{4-[1-(4-Cyclohexylcyclohexyl)-3-(4-trifluoromethoxyphenyl)ureidomethyl]benzoylamino}propionic acid], the IC50 is 0.018 µM.

On to `O=C(O)CCNC(=O)c1ccc(CN(C(=O)Nc2ccc(SC(F)(F)F)cc2)c2ccc(C3CCCCC3)cc2)cc1` [Example 233, 3-{4-[1-(4-Cyclohexylphenyl)-3-(4-trifluoromethylsulfanylphenyl)ureidomethyl]benzoylamino}propionic acid], for which the IC50 came to 0.02 µM.

For `O=C(NCc1nn[nH]n1)c1ccc(CN(Cc2ccc(OC(F)(F)F)cc2)[C@H]2CC[C@@H](C3CCCCC3)CC2)cc1` [Example 573, 4-({(4-cis-Cyclohexylcyclohexyl)-[4-(trifluoromethoxy)benzyl]amino}methyl)-N-(2H-tetrazol-5-ylmethyl)benzamide], the IC50 worked out at 0.152 µM.

With `CCCCOC(=O)c1ccc(NC(=O)N(CCC(C)C)Cc2ccc(C(=O)NCCC(=O)O)cc2)cc1`, the 50% inhibitory concentration (IC50) came to 0.254 µM.

Turning to `Cc1cc(C)c(Cc2ccc(C(=O)NN(Cc3ccc(C(=O)NCCC(=O)O)cc3)[C@H]3CC[C@@H](C(C)(C)C)CC3)o2)c(C)c1` [Example 591, 3-(4-{N-(cis-4-tert-Butylcyclohexyl)-N′-[5-(2,4,6-trimethylbenzyl)furan-2-carbonyl]hydrazinomethyl}benzoylamino)propionic acid], the IC50 came out at 0.004 µM.

For the compound `O=C(O)CCNC(=O)c1ccc(CN(Cc2ccc(OC(F)(F)F)cc2)[C@H]2CC[C@H](C3CCCCC3)CC2)cc1` [Example 387, 3-(4-{[(trans-4-cyclohexylcyclohexyl)-(4-trifluoromethoxybenzyl)amino]methyl}benzoylamino)propionic acid], the IC50 was determined as 0.111 µM.

In the case of `O=C(O)CCNC(=O)c1ccc(CN(C(=O)Nc2ccc(OC(F)(F)F)cc2)C2CCC3CCCCC3C2)cc1` (stereo not drawn) [drawing 1173], the IC50 was determined as 0.426 µM.

Regarding `O=C(Nc1nn[nH]n1)c1ccc(CN(C(=O)Nc2ccc(OC(F)(F)F)cc2)[C@H]2CC[C@H](C3CCCCC3)CC2)cc1` [Example 576, 4-[1-(4-trans-Cyclohexylcyclohexyl)-3-(4-trifluoromethoxyphenyl)ureidomethyl]-N-(2H-tetrazol-5-yl)benzamide], the IC50 came out at 0.004 µM.

The same assay, now with this note: screened at 1 μM; library compounds; read-out: displacement of the glucagon tracer when screened at 1 μM concentration in the glucagon binding assay II.
`CC(C)(C)C1CCC(N(Cc2ccc(C(=O)Nc3ccc4c(c3)OCCO4)cc2)C(=O)Nc2cc(Cl)cc(Cl)c2)CC1` (stereo not drawn) [Example 168, 4-[1-(4-tert-Butylcyclohexyl)-3-(3,5-dichlorophenyl)ureidomethyl]-N-(2,3-dihydro-1,4-benzodioxin-6-yl)benzamide]: the inhibition at 1 µM is greater than 50%.

As to `O=C(O)CCNC(=O)c1ccc(CN(C(=O)Nc2ccc(Cl)c(C(F)(F)F)c2)c2ccc(C3CCCCC3)cc2)cc1` [Example 185, 3-{4-[3-(4-Chloro-3-trifluoromethylphenyl)-1-(4-cyclohexylphenyl)ureidomethyl]benzoylamino}propionic acid], the inhibition at 1 µM was greater than 50%.

`O=C(O)CCNC(=O)c1ccc(CN(Cc2ccccc2OC(F)(F)F)C(=O)Nc2ccc(SC(F)(F)F)cc2)s1` [Example 126, 3-{5-[1-(2-Trifluoromethoxybenzyl)-3-(4-trifluoromethylsulfanylphenyl)ureidomethyl]thiophene-2-carbonylamino)propionic acid]: the inhibition at 1 µM was greater than 50%.

Turning to `O=C(O)CCCOc1ccc(CN(C(=O)Nc2ccc(C(=O)O)cc2)c2ccc(C3CCCCC3)cc2)cc1` [Example 218, 4-[3-[4-(3-Carboxypropoxy)benzyl]-3-(4-cyclohexylphenyl)ureido]benzoic acid], the inhibition at 1 µM is greater than 50%.

On to `CC(C)(C)c1ccc(CN(Cc2ccc(C(=O)NCCC(=O)O)s2)C(=O)Nc2ccc(SC(F)(F)F)cc2)cc1` [Example 130, 3-{5-[1-(4-tert-Butylbenzyl)-3-(4-trifluoromethylsulfanylphenyl)ureidomethyl]thiophene-2-carbonylamino)propionic acid], for which the inhibition at 1 µM is greater than 50%.

In the case of `CC(C)(C)C1CCC(N(Cc2ccc(OCCCC(=O)O)cc2)C(=O)Nc2ccc(OC(F)(F)F)cc2)CC1` (stereo not drawn) [Example 224, 4-{4-[1-(4-tert-Butylcyclohexyl)-3-(4-trifluoromethoxyphenyl)ureidomethyl]phenoxy}butyric acid], the inhibition at 1 µM was greater than 50%.

Regarding `COc1ccc(CN(Cc2ccc(C(C)C)cc2)Cc2ccc(C(=O)NCCC(=O)O)s2)cc1OC` [Example 150, 3-(5-{[(3,4-Dimethoxybenzyl)-(4-isopropylbenzyl)amino]methyl}thiophene-2-carbonylamino)propionic acid], the inhibition at 1 µM was greater than 50%.

Turning to `CC(C)(C)C1CCC(N(Cc2ccc(C(=O)Nc3ccc(O)c([N+](=O)[O-])c3)cc2)C(=O)Nc2ccc(OC(F)(F)F)cc2)CC1` (stereo not drawn) [Example 163, 4-[1-(4-tert-Butylcyclohexyl)-3-(4-trifluoromethoxyphenyl)ureidomethyl]-N-(4-hydroxy-3-nitrophenyl)benzamide], the inhibition at 1 µM is greater than 50%.

In the case of `O=C(O)CCNC(=O)c1ccc(CN(Cc2ccccc2OC(F)(F)F)C(=O)Nc2ccc3ccccc3c2)cc1` [Example 115, 3-{4-[1-(2-Trifluoromethoxybenzyl)-3-naphthalene-2-ylureidomethyl]benzoylamino)propionic acid], the inhibition at 1 µM was greater than 50%.

Turning to `O=C(O)CCNC(=O)c1ccc(CN(C(=O)NCOc2ccc3ccccc3c2)c2ccc(C3CCCCC3)cc2)cc1` [Example 203, 3-{4-[1-(4-Cyclohexylphenyl)-3-(naphthalen-2-yloxymethyl)ureidomethyl]benzoylamino}propionic acid], the inhibition at 1 µM is greater than 50%.

In the case of `O=C(O)CCNC(=O)c1ccc(CN(Cc2ccccc2OC(F)(F)F)C(=O)Nc2ccc(SC(F)(F)F)cc2)cc1` [Example 117, 3-{4-[1-(2-Trifluoromethoxybenzyl)-3-(4-trifluoromethylsulfanylphenyl)ureidomethyl]benzoylamino)propionic acid], the inhibition at 1 µM was greater than 50%.

With `O=C(O)CCNC(=O)c1ccc(CN(C(=O)Nc2ccc(Cl)c(C(F)(F)F)c2)c2ccc3nc(S)sc3c2)cc1` [Example 183, 3-{4-[3-(4-Chloro-3-trifluoromethylphenyl)-1-(2-mercaptobenzothiazol-6-yl)ureidomethyl]benzoylamino}propionic acid], the inhibition at 1 µM is greater than 50%.

`CC(C)(C)C1CCC(N(Cc2ccc(OCCCC(=O)O)cc2)C(=O)Nc2cccc(SC(F)(F)F)c2)CC1` (stereo not drawn) [Example 198, 4-{4-[1-(4-tert-Butylcyclohexyl)-3-(3-trifluoromethylsulfanylphenyl)ureidomethyl]phenoxy}butyric acid]: the inhibition at 1 µM was greater than 50%.

As a reminder, the IC50 is the midpoint of a concentration-inhibition curve.
